Reference: patent publication US10722484B2, “Methods of cancer treatment” (K-Gen, Inc., priority 2016, dated 2020)
Like-named read-outs stand apart in the source and are kept apart here.

How the values were obtained:
[1] = test system: HL-60 human promyelocytic leukemia cells; assay: Combination viability/proliferation assays
Description: Briefly, cells at density of 1,000-10,000 cells/well in 96-well plates or 200-1600 cells/well in 384-well plates were seeded and incubated at 37° C. for 24 hours before addition of compounds. A series of 9 different concentrations of compound stocks (500×) were prepared by 3-fold serial dilutions in DMSO. […] After 96 hours of incubation, 35 μL or 50 μL of CellTiter Glo reagent (Promega) was added to each well and luminescence was measured after 10 minutes using EnVision (PerkinElmer). Luminescence from cells treated with DMSO alone was set as Max and % of inhibition was calculated as follows: Inhibition %=(Max-Sample value)/Max*100. Data were analyzed using XLfit software (ID Business Solutions Ltd.) or GraphPad software and IC50, relative IC50, and % of top inhibition were calculated.
The top concentration for the tested PKC activator compound was set at roughly the IC50 when the same testing compound was used as a single agent assayed in the same cell line. The next dose was either 3-fold or 10-fold dilution from the top concentration.

[2] = test system: A549 lung cancer cell line; assay: Combination viability/proliferation assays (384-well IC50 ratio, 96-well MacSynergy II); assay type: cell-based; conditions: for Combination in A549: K101A (synergism/antagonism): agent assayed in combination with K101A; for Combination in A549: K101A (synergism/antagonism) / Combination in A549: K102 (synergism/antagonism): * 2-3 concentrations, # full concentration ranges; for Combination in A549: K102 (synergism/antagonism): agent assayed in combination with K102; for Combination in A549: K101A (synergism/antagonism) / Combination in A549: K102 (synergism/antagonism) / Ratio ([…] DMSO IC50/combination IC50) / Combination in A549: K101E (synergism/antagonism): A549; for effect in combination with the PKC activator compounds in inhibiting the growth of A549 cells: PKC activator compounds (K101A, K101E, K102); for Combination in A549: K101E (synergism/antagonism): agent assayed in combination with K101E
Description: (§1) A 96-well MacSynergy II format for combination test was also used. […] The analysis was done with the SQRT(Data) scale and the four parameter Hill curve was fitted using XLfit5.1 (the MacSynergy II Excel Spreadsheet) for the inhibition data. Synergy (positive number) or Antagonism (negative number) volumes were calculated. […] Three-dimensional MacSynergy II graphs were generated where positive values indicated synergism and negative values indicated antagonism.

Panc2.13 = assay: Combination viability/proliferation assays; assay type: cell-based; conditions: for Combination effect, Panc2.13: K101A: agent in combination with K101A; for effect in combination with K101A: Panc2.13, K101A at 1 μM or at 0.67 μM
Description: as §1

CCRF-CEM = assay: Proliferation assay (CellTiter Glo); assay type: cell-based; conditions: 96 hours
Description: (§2) The dose range for most compounds was 4.6 nM-30 μM. The dose ranges for some compounds were adjusted downward to 0.46 nM-3 μM or 0.08 nM-0.5 μM or 0.03 nM-0.2 μM. […] The results are shown in Tables 3-6 for pancreatic cancer, lung cancer, colon/gastric cancer, and leukemia.

Pan2.03 = assay: Proliferation assay (CellTiter Glo); assay type: cell-based; conditions: 96 hours
Description: as §2

AsPC-1 = assay: Proliferation assay (CellTiter Glo); assay type: cell-based; conditions: 96 hours
Description: as §2

Pan2.13 = assay: Proliferation assay (CellTiter Glo); assay type: cell-based; conditions: 96 hours
Description: as §2

BxPC-3 = assay: Proliferation assay (CellTiter Glo); assay type: cell-based; conditions: BxPC-3 (RAS WT); 96 hours
Description: as §2
(§3) Other cancer cell lines having wild-type K-RAS status and K-RAS mutation at G12 were also screened using the PKC activator compounds. […] K104 was tested in a range of 0.03 nM-0.2 μM. […] The dose ranges were adjusted downward to 0.46 nM-3 μM for K102 and 0.08 nM-0.5 μM for K103 for some cell lines. The results of the screening of cancer cells lines with wild-type K-RAS status and K-RAS mutations at the G12 positions are presented in Table 7.

HT29 = assay: Proliferation assay (CellTiter Glo); assay type: cell-based; conditions: HT29 (RAS WT); 96 hours
Description: as §2, §3

SW900 = assay: Proliferation assay (CellTiter Glo); assay type: cell-based; conditions: SW900 (K-RAS: G12V); 96 hours
Description: as §2, §3

RPMI8226 = assay: Proliferation assay (CellTiter Glo); assay type: cell-based; conditions: RPM18226; 96 hours
Description: as §2, §3

Colo205 = assay: Proliferation assay (CellTiter Glo); assay type: cell-based; conditions: Colo205 (RAS WT); 96 hours
Description: as §2, §3

H1915 = assay: Proliferation assay (CellTiter Glo); assay type: cell-based; conditions: H1915 (RAS WT); 96 hours
Description: as §2, §3

H838 = assay: Proliferation assay (CellTiter Glo); assay type: cell-based; conditions: H838 (RAS WT); 96 hours
Description: as §2, §3

[3] = in combination with 0.0002 μM K102, NC: no change
[4] = in combination with 0.002 μM K102, NC: no change
[5] = in combination with 0.005 μM K101A, NC: no change
[6] = in combination with 0.02 μM K102, NC: no change
[7] = in combination with 0.05 μM K101A, NC: no change
[8] = in combination with 0.5 μM K101A, ratio >2 synergistic, <0.5 antagonistic, NC: no change
[9] = in combination with 0.013 μM K102
[10] = in combination with 0.04 μM K102
[11] = in combination with 0.33 uM K101A

Cc1nc(Nc2ncc(C(=O)Nc3c(C)cccc3Cl)s2)cc(N2CCN(CCO)CC2)n1 [Dasatinib]
increase of potency in inhibiting growth ([1]; combined with K101A (0.3 μM) or K102 (0.005 μM)): more than 10 fold

O=C(CCCCCCC(=O)Nc1ccccc1)NO [SAHA, suberoylanilide hydroxamic acid]
Combination in A549: K101A (synergism/antagonism) [2]: Antagonism (minor) | Combination in A549: K102 (synergism/antagonism) [2]: Antagonism (minor) | effect in combination with K101A and K102 [1]: moderate or minor synergistic/additive effect

NC1(c2ccc(-c3nc4ccn5c(=O)[nH]nc5c4cc3-c3ccccc3)cc2)CCC1 [MK2206, 8-[4-(1-aminocyclobutyl)phenyl]-9-phenyl-2H-[1,2,4]triazolo[3,4-f][1,6]naphthyridin-3-one]
Ratio ([…] DMSO IC50/combination IC50) [2, 3]: 0.81 | Ratio ([…] DMSO IC50/combination IC50) [2, 4]: 3.13 | Ratio ([…] DMSO IC50/combination IC50) [2, 5]: 0.68 | Ratio ([…] DMSO IC50/combination IC50) [2, 6]: 5.57 | Ratio ([…] DMSO IC50/combination IC50) [2, 7]: 2.13 | Ratio ([…] DMSO IC50/combination IC50) [2, 8]: 6.03 | effect in combination with the PKC activator compounds in inhibiting the growth of A549 cells [2]: strong synergy | Combination in A549: K101A (synergism/antagonism) [2]: Synergism (strong) | Combination in A549: K101E (synergism/antagonism) [2]: Synergism | Combination in A549: K102 (synergism/antagonism) [2]: Synergism (strong) | Combination effect, Panc2.13: K101A (Panc2.13): None

O=C(c1cc(Cc2n[nH]c(=O)c3ccccc23)ccc1F)N1CCN(C(=O)C2CC2)CC1 [Olaparib]
Ratio ([…] DMSO IC50/combination IC50) [2, 3]: 0.78 | Ratio ([…] DMSO IC50/combination IC50) [2, 4]: 1.43 | Ratio ([…] DMSO IC50/combination IC50) [2, 5]: 0.91 | Ratio ([…] DMSO IC50/combination IC50) [2, 6]: 2.74 | Ratio ([…] DMSO IC50/combination IC50) ([2]; in combination with 0.03 μM K101E (footnote, Olaparib)): 1.15 | Ratio ([…] DMSO IC50/combination IC50) [2, 7]: 1.38 | Ratio ([…] DMSO IC50/combination IC50) ([2]; in combination with 0.3 μM K101E (footnote, Olaparib)): 1.30 | Ratio ([…] DMSO IC50/combination IC50) [2, 8]: 2.76 | Ratio ([…] DMSO IC50/combination IC50) ([2]; in combination with 3 μM K101E (footnote, Olaparib)): 1.97 | effect in combination with the PKC activator compounds in inhibiting the growth of A549 cells [2]: synergistic effect | Combination in A549: K101A (synergism/antagonism) [2]: Synergism | Combination in A549: K101E (synergism/antagonism) [2]: None | Combination in A549: K102 (synergism/antagonism) [2]: Synergism | effect in combination with K101A (Panc2.13): strong synergy | Combination effect, Panc2.13: K101A (Panc2.13): Synergism

Cc1sc2c(c1C)C(c1ccc(Cl)cc1)=NC(CC(=O)OC(C)(C)C)c1nnc(C)n1-2 (racemic) [(±)-JQ1, tert-butyl 2-(4-(4-chlorophenyl)-2,3,9-triMethyl-6H-thieno[3,2-f][1,2,4]triazolo[4,3-a][1,4]diazepin-6-yl)acetate]
Ratio ([…] DMSO IC50/combination IC50) [2, 9]: 0.55 | Ratio ([…] DMSO IC50/combination IC50) [2, 10]: 0.57 | Ratio ([…] DMSO IC50/combination IC50) [2, 11]: 0.27 | Ratio ([…] DMSO IC50/combination IC50) ([2]; in combination with 1 uM K101A): 0.09 | effect in combination with K101A or K102 in inhibiting the growth of A549 cells [2]: strong antagonist effect | Combination in A549: K101A (synergism/antagonism) [2]: Antagonism | Combination in A549: K102 (synergism/antagonism) [2]: Antagonism | effect in combination with K101A and K102 [1]: moderate or minor synergistic/additive effect

O=C1[C@H](Cc2ccc(O)cc2)N2C(=O)CCN(C(=O)NCc3ccccc3)[C@H]2CN1Cc1cccc2ccccc12 [ICG-001, (6S,9aS)-Hexahydro-6-[(4-hydroxyphenyl)methyl]-8-(1-naphthalenylmethyl)-4,7-dioxo-N-(phenylmethyl)-2H-pyrazino[1,2-a]pyrimidine-1(6H)-carboxamide]
Ratio ([…] DMSO IC50/combination IC50) [2, 9]: 0.96 | Ratio ([…] DMSO IC50/combination IC50) [2, 10]: 1.10 | Ratio ([…] DMSO IC50/combination IC50) [2, 11]: 1.05 | Ratio ([…] DMSO IC50/combination IC50) ([2]; in combination with 1 uM K101A): 1.10 | effect in combination with K101A or K102 in inhibiting the growth of A549 cells [2]: did not show synergy | effect in combination with the PKC activator compounds in inhibiting the growth of A549 cells [2]: insignificant synergism or antagonism | Combination in A549: K101A (synergism/antagonism) [2]: None | Combination in A549: K102 (synergism/antagonism) [2]: None | effect in combination with K101A (Panc2.13): strong synergy | Combination effect, Panc2.13: K101A (Panc2.13): Synergism

CC(=O)OC12CC(C)C3(O)C(C=C(COC(=O)CC(N)C(=O)[O-])CC4(O)C(=O)C(C)=CC43)C1C2(C)C.[Na+] (stereo not shown) [Compound K101I]
EC50 (CCRF-CEM; CCRF-CEM (K-RAS: G12D), absolute EC50, read-out: Ab EC50): > 30 µM | Top Inhibition % (CCRF-CEM; CCRF-CEM, % of top inhibition): 37.4% | EC50 (CCRF-CEM; CCRF-CEM, relative EC50, read-out: Re EC50): 1.51 µM | EC50 (Pan2.03; Pan2.03 (K-RAS: G12D), absolute EC50, read-out: Ab EC50): > 30 µM | Top Inhibition % (Pan2.03; Pan2.03, % of top inhibition): 26.3% | EC50 (Pan2.03; Pan2.03, relative EC50, read-out: Re EC50): 6.04 µM | EC50 (AsPC-1; AsPC-1 (K-RAS: G12D), absolute EC50, read-out: Ab EC50): > 30 µM | Top Inhibition % (AsPC-1; AsPC-1, % of top inhibition): 25.0% | EC50 (AsPC-1; AsPC-1, relative EC50, read-out: Re EC50): 6.64 µM | EC50 (Pan2.13; Pan2.13 (K-RAS: Q61H), absolute EC50, read-out: Ab EC50): > 30 µM | Top Inhibition % (Pan2.13; Pan2.13, % of top inhibition): 48.3% | EC50 (Pan2.13; Pan2.13, relative EC50, read-out: Re EC50): 0.16 µM | Top Inhibition % (BxPC-3): 38.12% | Top Inhibition % (HT29): 11.8% | Top Inhibition % (SW900): 10.8% | Top Inhibition % (RPMI8226): 17.60% | Top Inhibition % (Colo205): 82.2% | Top Inhibition % (H1915): 16.4% | Top Inhibition % (H838): 29.3%
